According to patent US6417212B1, “Modulators of peroxisome proliferator activated receptors” (Eli Lilly & Company, priority 1999, dated 2002):

Tests used:
Hu apoAI transgenic mice = experiment: Evaluation of triglyceride and cholesterol levels in Hu apoAI transgenic mice; type: in vivo; conditions: Mus musculus, 168 h, 30 mg/kg daily oral gavage for 7 days; for change in vivo at 30 mg/kg: pooled sera, read-out: % HDLc Increase (serum, FPLC area under the curve, over vehicle); for inhibition in vivo at 30 mg/kg: serum 3 hours after dosing on day 7, read-out: % Triglyceride Decrease (serum, over mice receiving vehicle)
Procedure: After an acclimation period of 2 weeks, animals were individually identified by ear notches, weighed, and assigned to groups based on body weight. Beginning the following morning, mice were dosed daily by oral gavage for 7 days using a 20 gauge, 11⁄2 curved disposable feeding needle (Popper & Sons). […] Prior to termination on day 7, mice were weighed and dosed. Three hours after dosing, animals were anesthetized by inhalation of isoflurane (2-4%; Abbott Laboratories, Chicago, Ill.) and blood obtained via cardiac puncture (0.7-1.0 ml). Whole blood was transferred to serum separator tubes (Vacutainer SST), chilled on ice, and permitted to clot. Serum was obtained after centrifugation at 4° C. and frozen until analysis for triglycerides, total cholesterol, compound levels, and serum lipoprotein profile by fast protein liquid chromatography (FPLC) coupled to an inline detection system. After sacrifice by cervical dislocation, the liver, heart and epididymal fat pads were excised and weighed. […] The percentage decrease in triglyceride serum levels in mice receiving a compound of the invention over mice receiving vehicle are reported in Table 2. […] The absorbance of the dye produced is linearly related to the analyte in the sample. The assays were further modified in our laboratory for use in a 96 well format. […] An additional aliquot of sample, pipetted to a third well and diluted in 200 μl water, provided a blank for each specimen. […] All samples from an experiment were assayed at the same time to minimize inter-assay variability. Serum lipoproteins were separated and cholesterol quantitated with an in-line detection system. […] The change in voltage corresponding to change in cholesterol concentration was plotted vs time and the area under the curve corresponding to the elution of VLDL, LDL and HDL was calculated using Perkin Elmer Turbochrome software.

huPPARγ = biological target: T1, huPPARγ (Homo sapiens, UniProt P37231); experiment: DNA-dependent binding (ABCD binding), SPA, huPPARγ; conditions: displacement of tritium-labeled PPARγ agonist radioligand
T1 sequence (P37231 1-505): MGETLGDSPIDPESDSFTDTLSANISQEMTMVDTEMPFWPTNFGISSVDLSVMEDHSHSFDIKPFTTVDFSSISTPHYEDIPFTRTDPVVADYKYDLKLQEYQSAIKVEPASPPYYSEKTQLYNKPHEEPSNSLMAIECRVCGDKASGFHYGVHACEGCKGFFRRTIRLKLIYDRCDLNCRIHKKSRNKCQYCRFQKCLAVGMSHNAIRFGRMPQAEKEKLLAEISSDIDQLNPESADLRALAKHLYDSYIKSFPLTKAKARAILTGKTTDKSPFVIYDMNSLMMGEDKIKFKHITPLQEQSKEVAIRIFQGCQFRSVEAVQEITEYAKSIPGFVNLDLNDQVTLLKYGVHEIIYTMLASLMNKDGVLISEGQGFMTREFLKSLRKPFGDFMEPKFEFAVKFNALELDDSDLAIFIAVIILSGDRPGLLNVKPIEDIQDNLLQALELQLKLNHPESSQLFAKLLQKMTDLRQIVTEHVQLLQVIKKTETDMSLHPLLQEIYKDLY
T1 sequence (P19793 1-462 partner): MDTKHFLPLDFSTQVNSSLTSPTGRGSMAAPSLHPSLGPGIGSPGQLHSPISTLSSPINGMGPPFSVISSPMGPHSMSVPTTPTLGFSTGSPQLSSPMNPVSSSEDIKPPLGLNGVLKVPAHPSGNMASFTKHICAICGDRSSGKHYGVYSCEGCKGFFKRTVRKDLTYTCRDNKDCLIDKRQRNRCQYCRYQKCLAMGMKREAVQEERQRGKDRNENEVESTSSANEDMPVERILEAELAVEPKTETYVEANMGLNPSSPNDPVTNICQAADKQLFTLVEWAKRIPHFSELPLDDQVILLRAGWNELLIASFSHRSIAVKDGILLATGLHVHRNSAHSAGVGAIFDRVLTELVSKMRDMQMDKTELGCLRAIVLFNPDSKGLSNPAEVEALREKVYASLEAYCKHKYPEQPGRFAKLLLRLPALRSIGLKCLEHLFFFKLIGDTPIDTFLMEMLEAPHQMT
Procedure: DNA-dependent binding (ABCD binding) was carried out using SPA technology with PPAR receptors. Tritium-labeled PPARγ and PPARα agonists were used as radioligands for generating displacement curves and IC50 values with compounds of the invention. Cotransfection assays were carried out in CV-1 cells. The reporter plasmid contained an acylCoA oxidase (AOX) PPRE and TK promoter upstream of the luciferase reporter cDNA. Appropriate PPARs and RXRα were constitutively expressed using plasmids containing the CMV promoter. […] In order to eliminate such interference, a GAL4 chimeric system was used in which the DNA binding domain of the transfected PPAR was replaced by that of GAL4, and the GAL4 response element was utilized in place of the AOX PPRE. Cotransfection efficacy was determined relative to PPARα agonist and […] reference molecules. Efficacies were determined by computer fit to a concentration-response curve, or in some cases at a single high concentration of agonist (10 μM). For binding or cotransfection studies with receptors other than PPARs, similar assays were carried out using appropriate ligands, receptors, reporter constructs, etc., for that particular receptor.
(§1) These studies were carried out to evaluate the ability of compounds of the invention to bind to and/or activate various nuclear transcription factors, particularly huPPARα (“hu” indicates “human”) and huPPARγ. These studies provide in vitro data concerning efficacy and selectivity of compounds of the invention. Furthermore, binding and cotransfection data for compounds of the invention were compared with corresponding data for marketed compounds that act on either huPPARα or huPPARγ.

huPPARα = experiment: Cotransfection assay in CV-1 cells, huPPARα (GAL4 chimeric system); type: cell-based, human; conditions: luciferase reporter, relative to PPARα agonist reference molecule
Procedure: DNA-dependent binding (ABCD binding) was carried out using SPA technology with PPAR receptors. Tritium-labeled PPARγ and PPARα agonists were used as radioligands for generating displacement curves and IC50 values with compounds of the invention. Cotransfection assays were carried out in CV-1 cells. The reporter plasmid contained an acylCoA oxidase (AOX) PPRE and TK promoter upstream of the luciferase reporter cDNA. Appropriate PPARs and RXRα were constitutively expressed using plasmids containing the CMV promoter. For PPARα and PPARβ, interference by endogenous PPARγ in CV-1 cells was an issue. In order to eliminate such interference, a GAL4 chimeric system was used in which the DNA binding domain of the transfected PPAR was replaced by that of GAL4, and the GAL4 response element was utilized in place of the AOX PPRE. Cotransfection efficacy was determined relative to PPARα agonist and […] reference molecules. Efficacies were determined by computer fit to a concentration-response curve, or in some cases at a single high concentration of agonist (10 μM). For binding or cotransfection studies with receptors other than PPARs, similar assays were carried out using appropriate ligands, receptors, reporter constructs, etc., for that particular receptor.
as §1

| IC50 (huPPARγ) | Compound | change in vivo at 30 mg/kg (Hu apoAI transgenic mice) | inhibition in vivo at 30 mg/kg (Hu apoAI transgenic mice) | huPPARα CTF Efficacy (huPPARα) |
| --- | --- | --- | --- | --- |
| 457 nM | Cc1oc(-c2ccc(-c3c(F)cccc3F)cc2)nc1CCOc1ccc(OC(C)(C)C(=O)O)cc1 [Example 14, 2-(4-{2-[2-(2′,6′-Difluorobiphenyl-4-yl)-5-methyloxazol-4-yl]-ethoxy}-phenoxy)-2-methylpropionic acid] | 66% | 67.5% | 90% |
| 532 nM | Cc1oc(-c2ccc(-c3ccccc3)cc2)nc1CCOc1cccc(OC(C)(C)C(=O)O)c1 [Example 21, 2-{3-[2-(2-Biphenyl-4-yl-5-methyloxazol-4-yl)ethoxy]phenoxy}-2-methylpropionic acid] | 204% | 60.5% | 92% |
| 268 nM | Cc1sc(-c2cccc(-c3ccccc3)c2)nc1CCOc1ccc(OC(C)(C)C(=O)O)cc1 [Example 46, 2-{4-[2-(2-Biphenyl-3-yl-5-methyl-thiazol-4-yl)-ethoxy]-phenoxy}-2-methyl-propionic acid] | 26% | 16.4% | 122% |
